Laboratory results published in patent publication US8962616B2, “Heterocyclic substituted hexahydropyrano[3,4-d][1,3]thiazin-2-amine compounds” (Pfizer Inc., priority 2012, dated 2015).
Counter-ions that a name gives are not always drawn.

Tests used:
[1] = target: BACE2 enzyme (Homo sapiens (Human), UniProt Q9Y5Z0); assay: BACE2 Cell-free Assay (fluorescence polarization, synthetic substrate); assay type: biochemical; details: single determination
Description: This assay measures the inhibition of the BACE2 enzyme as it cleaves a non-native peptide. A synthetic substrate that can be cleaved by BACE2 having N-terminal biotin and made fluorescent by the covalent attachment of Oregon Green at the Cys residue is used to assay BACE2 activity in the presence or absence of the inhibitory compounds. The substrate is Biotin-[…]-C(Oregon green)-KK-OH. The BACE2 enzyme is available from Enzo Life Sciences (Cat # BML-SE550). Compounds are incubated in a ½ log dose response curve from a top concentration of 100 μM with BACE2 enzyme and the biotinylated fluorescent peptide in 384-well black plates (Thermo Scientific #4318). BACE2 is at a final concentration of 2.5 nM with a final concentration of peptide substrate of 150 nM in a reaction volume of 30 μL assay buffer (100 mM Sodium Acetate, pH 4.5 (brought to pH with acetic acid), and 0.001% Tween-20). Plates are covered and incubated for 3 hours at 37° C. The reaction is stopped with the addition of 30 μL of 1.5 μM Streptavidin (Pierce, #21125). After a 10 minute incubation at room temperature, plates are read on a PerkinElmer Envision for fluorescent polarization (Ex485 nm/Em530 nm). The activity of the beta-secretase enzyme is detected by changes in the fluorescence polarization that occur when the substrate is cleaved by the enzyme.

[2] = tested on: H4 human neuroglioma cells over-expressing the wild-type human APP695; assay: sAPPβ Whole-Cell Assay (in vitro sAPPb assay, ELISA); assay type: cell-based; details: 18 hours, geometric mean of 2-7 determinations (values marked b: single determination)
Description: Whole Cell-Free Assay (In Vitro sAPPb Assay):
H4 human neuroglioma cells over-expressing the wild-type human APP695 are treated for 18 hours with compound in a final concentration 1% DMSO. sAPPβ levels are measured using TMB-ELISA with capture APP N-terminal antibody (Affinity BioReagents, OMA1-03132), wild-type sAPPβ specific reporter p192 (Elan), and tertiary anti rabbit-HRP (GE Healthcare).

[3] = target: BACE1 enzyme (Homo sapiens (Human), UniProt P56817); assay: BACE1 Cell-Free Assay (fluorescence polarization, synthetic APP substrate); assay type: biochemical; details: geometric mean of 2-7 determinations (values marked b: single determination)
Sequence of BACE1 enzyme (P56817 46-457): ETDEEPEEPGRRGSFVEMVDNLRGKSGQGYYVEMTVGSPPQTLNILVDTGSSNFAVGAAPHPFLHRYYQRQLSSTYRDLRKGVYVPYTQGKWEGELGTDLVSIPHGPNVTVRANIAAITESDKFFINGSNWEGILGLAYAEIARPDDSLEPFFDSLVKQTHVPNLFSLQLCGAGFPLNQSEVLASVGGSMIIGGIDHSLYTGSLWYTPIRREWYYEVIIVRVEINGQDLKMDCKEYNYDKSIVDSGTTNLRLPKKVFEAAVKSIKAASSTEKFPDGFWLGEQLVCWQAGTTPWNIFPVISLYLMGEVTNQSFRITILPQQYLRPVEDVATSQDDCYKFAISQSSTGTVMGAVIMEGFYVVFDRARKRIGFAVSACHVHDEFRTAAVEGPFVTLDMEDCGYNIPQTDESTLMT
From the text: This assay measures the inhibition of the beta-secretase enzyme as it cleaves a non-native peptide.
A synthetic APP substrate that can be cleaved by beta-secretase having N-terminal biotin and made fluorescent by the covalent attachment of Oregon Green at the Cys residue is used to assay beta-secretase activity in the presence or absence of the inhibitory compounds. […] The BACE1 enzyme is affinity purified material from conditioned media of CHO-K1 cells that have been transfected with a soluble BACE construct (BACE1deltaTM96His). Compounds are incubated in a ½ log dose response curve from a top concentration of 100 μM with BACE1 enzyme and the biotinylated fluorescent peptide in 384-well black plates (Thermo Scientific #4318). BACE1 is at a final concentration of 0.1 nM with a final concentration of peptide substrate of 150 nM in a reaction volume of 30 μL assay buffer (100 mM sodium acetate, pH 4.5 (brought to pH with acetic acid), and 0.001% Tween-20). Plates are covered and incubated for 3 hours at 37° C. The reaction is stopped with the addition of 30 μL of 1.5 μM Streptavidin (Pierce, #21125). After a 10 minute incubation at room temperature, plates are read on a PerkinElmer Envision for fluorescent polarization (Ex485 nm/Em530 nm). The activity of the beta-secretase enzyme is detected by changes in the fluorescence polarization that occur when the substrate is cleaved by the enzyme.

Sequence of BACE2 enzyme (Q9Y5Z0 63-518): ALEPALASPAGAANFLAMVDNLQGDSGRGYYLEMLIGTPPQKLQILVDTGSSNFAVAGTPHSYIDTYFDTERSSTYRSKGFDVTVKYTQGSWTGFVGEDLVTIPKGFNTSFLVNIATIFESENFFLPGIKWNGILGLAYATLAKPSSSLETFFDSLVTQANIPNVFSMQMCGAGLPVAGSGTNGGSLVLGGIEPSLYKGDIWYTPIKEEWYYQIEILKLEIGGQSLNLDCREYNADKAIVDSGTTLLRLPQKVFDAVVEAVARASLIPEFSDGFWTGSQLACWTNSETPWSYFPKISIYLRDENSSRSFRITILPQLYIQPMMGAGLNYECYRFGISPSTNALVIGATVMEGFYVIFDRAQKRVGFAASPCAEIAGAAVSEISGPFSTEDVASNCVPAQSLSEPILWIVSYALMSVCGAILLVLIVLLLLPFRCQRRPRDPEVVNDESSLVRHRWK

Row | IC50 ([2]; Homo sapiens) | Structure (SMILES) | IC50 [1] | IC50 [3] | IC50 [2]
1 | 24 nM | Cc1cnc([C@H]2C[C@H]3CSC(N)=N[C@@]3(c3ccc(F)cc3F)CO2)nc1 [Example 24, (4aR,6R,8aS)-8a-(2,4-difluorophenyl)-6-(5-methylpyrimidin-2-yl)-4,4a,5,6,8,8a-hexahydropyrano[3,4-d][1,3]thiazin-2-amine, trifluoroacetate salt] | 1080 nM | 688 nM | 
2 |  | Cc1nc([C@H]2C[C@H]3CSC(N)=N[C@@]3(c3ccc(F)cc3F)CO2)co1 [Example 11, (4aR,6R,8aS)-8a-(2,4-Difluorophenyl)-6-(2-methyl-1,3-oxazol-4-yl)-4,4-a,5,6,8,8a-hexahydropyrano[3,4-d][1,3]thiazin-2-amine, hydrochloride salt] | 2020 nM | 316 nM | 34 nM
